Laboratory results: ChEMBL document CHEMBL1201862, “PubChem BioAssay data set” (2004)
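How tested: cells in 96-well plates exposed to compound for 48 hours at five concentrations. Abbreviation: GI50, concentration required for 50% inhibition of growth.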 Calls of active or inactive are those of the source. Rule as the data show it: active = GI50 up to about 1.1 µM and inactive = higher.

How the values were obtained:
Assay in all cases: NCI tumour cell line growth inhibition, 48 h
CAKI-1 = test system: CAKI-1
SN12C = test system: SN12C
SK-MEL-2 = test system: SK-MEL-2
SF-295 = test system: SF-295
SK-MEL-28 = test system: SK-MEL-28
MDA-MB-231 = test system: MDA-MB-231
U-251 = test system: U-251
Hs-578T = test system: Hs-578T
MDA-N = test system: MDA-N
TK-10 = test system: TK-10
SF-539 = test system: SF-539
LOX IMVI = test system: LOX IMVI
MOLT-4 = test system: MOLT-4
MCF7 = test system: MCF7
UACC-62 = test system: UACC-62
SR = test system: SR
ACHN = test system: ACHN
HCC 2998 = test system: HCC 2998
NCI/ADR-RES = test system: NCI/ADR-RES
SK-OV-3 = test system: SK-OV-3

Measured: GI50

CNN1C(=O)c2c(C)c(C)c(C#N)c(N)c2C1=O
inactive: CAKI-1 > 100 µM | SN12C > 100 µM | SK-MEL-2 > 100 µM | SF-295 > 100 µM | SK-MEL-28 > 100 µM | MDA-MB-231 > 100 µM | U-251 > 100 µM | Hs-578T > 100 µM | MDA-N > 100 µM | TK-10 > 100 µM | SF-539 > 100 µM | LOX IMVI > 100 µM | MOLT-4 > 100 µM | MCF7 > 100 µM | UACC-62 > 100 µM | SR > 100 µM | ACHN > 100 µM | HCC 2998 > 100 µM | NCI/ADR-RES > 100 µM

NC(=O)c1cccc(OCC(O)CO)c1 (stereo unspecified)
inactive: CAKI-1 > 100 µM | SN12C > 100 µM | SK-MEL-2 > 100 µM | SF-295 > 100 µM | SK-MEL-28 > 100 µM | MDA-MB-231 > 100 µM | U-251 > 100 µM | Hs-578T > 100 µM | MDA-N > 100 µM | TK-10 > 100 µM | SF-539 > 100 µM | MOLT-4 > 100 µM | MCF7 > 100 µM | UACC-62 > 100 µM | SR > 100 µM | ACHN > 100 µM | HCC 2998 > 100 µM | SK-OV-3 > 100 µM | NCI/ADR-RES > 100 µM

S=C(S)N1CCN(c2cccc(Cl)c2)CC1
inactive: CAKI-1 42.1 µM | SN12C > 100 µM | SK-MEL-2 85.5 µM | SF-295 > 100 µM | SK-MEL-28 39.8 µM | MDA-MB-231 68.9 µM | U-251 44.3 µM | Hs-578T > 100 µM | MDA-N > 100 µM | TK-10 > 100 µM | SF-539 > 100 µM | LOX IMVI 36.7 µM | MOLT-4 78.3 µM | MCF7 > 100 µM | UACC-62 > 100 µM | SR 39.4 µM | ACHN > 100 µM | HCC 2998 52.6 µM | NCI/ADR-RES > 100 µM

CCCCOc1ccc(S(=O)(=O)N/C(=N\O)Nc2ccc(Cl)cc2)cc1
inactive: CAKI-1 10.8 µM | SN12C 17.3 µM | SK-MEL-2 16.3 µM | SF-295 16.9 µM | SK-MEL-28 18.2 µM | MDA-MB-231 16.4 µM | U-251 15.5 µM | Hs-578T 23.2 µM | MDA-N 17.7 µM | TK-10 15 µM | SF-539 20.8 µM | LOX IMVI 16 µM | MOLT-4 10.8 µM | MCF7 13.3 µM | UACC-62 15.2 µM | SR 11 µM | ACHN 14.9 µM | HCC 2998 14.3 µM | NCI/ADR-RES 15.8 µM
